Experimental data from patent US8765819B2, “Composition comprising benzoic acid in combination with organic acid preservatives as active ingredients and the use thereof” (priority 2009, dated 2014).

System: Candida strains (clinical isolates from patients suffering from Candidal vaginitis)
Experiment: Inhibition of Candida growth in broth pH 4.5 (turbidity after 72 hours)
Format: cell-based
Conditions: for Candida growth, Strain 1: Strain 1, 37.5° C.; for Candida growth, Strain 2: Strain 2, 37.5° C.; for Candida growth, Strain 3: Strain 3, 37.5° C.; for Candida growth, Strain 4: Strain 4, 37.5° C.; for Candida growth, Strain 5: Strain 5, 37.5° C.; for Candida growth, Strain 6: Strain 6, 37.5° C.; for Candida growth, Strain 7: Strain 7, 37.5° C.; for Candida growth, Strain 8: Strain 8, 37.5° C.; for Candida growth, Strain 9: Strain 9, 37.5° C.; for Candida growth, Strain 10: Strain 10, 37.5° C.; for Candida growth, Strain 11: Strain 11, 37.5° C.; for number of the 11 Candida strains that grew: of 11 strains
Source text: 1. […] Unless otherwise illustrated, the solutions in the experiments are all aqueous solutions. 2. Experimental Method: (1) Experimental Materials:
a) Experimental strains: 11 Candida strains, all of which were screened from the clinical isolates from patients suffering from Candidal vaginitis, and were capable of growing in broth comprising 0.025% (w/v) sodium benzoate.
b) Broth: 1% yeast extract powder, 9% sucrose, 0.025% Manganese sulfate (MnSO4.4H2O), 0.058% Magnesium sulphate (MgSO4.7H2O), and 0.9% lactic acid, wherein the pH value was adjusted to 4.5 and the broth was sterilized for use;
(2) Experimental Grouping:
The requirements for aseptic technique were strictly followed to prepare the following groups of sterile test tubes: • a) sodium benzoate group: a test tube containing 5 ml broth, to which 0.025% (w/v) sodium benzoate was added; • b) sodium benzoate+sodium dehydroacetate group: 6 test tubes each containing 5 ml broth, wherein 0.0025% (w/v), 0.005% (w/v), and 0.01% (w/v) sodium dehydroacetate were added to three tubes, respectively; 0.025% (w/v) sodium benzoate was added to each of the rest 3 tubes, and then 0.0025% (w/v), 0.005% (w/v), 0.01% (w/v) sodium dehydroacetate were added to them, respectively; • c) sodium benzoate+sodium propionate group: 6 test tubes each containing 5 ml broth, wherein 0.0625% (w/v), 0.125% (w/v), and 0.25% (w/v) sodium propionate were added to three tubes, respectively; 0.025% (w/v) sodium benzoate was added to each of the rest 3 tubes, and then 0.0625% (w/v), 0.125% (w/v), and 0.25% (w/v) sodium propionate were added to them, respectively; • d) sodium benzoate+potassium sorbate group: 6 test tubes each containing 5 ml broth, wherein 0.00625% (w/v), 0.0125% (w/v), and 0.025% (w/v) potassium sorbate were added to 3 tubes, respectively; 0.025% (w/v) sodium benzoate was added to each of the rest 3 tubes, and then 0.00625% (w/v), 0.0125% (w/v), and 0.025% (w/v) potassium sorbate were added to them, respectively; • e) sodium benzoate+Ethylparaben: 6 test tubes each containing 5 ml broth, wherein 0.0125% (w/v), 0.025% (w/v), and 0.05% (w/v) Ethylparaben were added to 3 tubes, respectively; 0.025% (w/v) sodium benzoate was added to each of the rest 3 tubes, and then 0.0125% (w/v), 0.025% (w/v), and 0.05% (w/v) Ethylparaben were added to them, respectively; • f) Positive control: a broth-containing test tube with Candida but without sodium benzoate, sodium dehydroacetate, sodium propionate, sorbic acid, or Ethylparaben. • g) Negative control: a broth-containing test tube without Candida, sodium benzoate, sodium dehydroacetate, sodium propionate, sorbic acid, or Ethylparaben; (3) Experimental Methods:
The Candidal suspensions were prepared under stringent aseptic manipulation techniques. The colonies of various Candidal strains were diluted with saline, respectively. The turbidity was adjusted with a turbiditor to 0.5M (about 10^8CFU/ml), and then 1 ml 0.5M bacterial solution was added to 9 ml broth and was 10 times diluted, so that each Candidal suspension comprised Candidal organisms at 10^7CFU/ml.
Under stringent aseptic manipulation techniques, 100 μl bacterial solution thus prepared was added to each of the aforesaid a˜f test tubes and the positive control tube, and no bacterial solution was added to the negative control tube g.
These tubes were incubated in a biochemical incubator at 37.5° C. for 72 hours. The turbidity of the test tubes were observed and recorded.

Row | Compound | Candida growth, Strain 1 | Candida growth, Strain 2 | Candida growth, Strain 3 | Candida growth, Strain 4 | Candida growth, Strain 5 | Candida growth, Strain 6 | Candida growth, Strain 7 | Candida growth, Strain 8 | Candida growth, Strain 9 | Candida growth, Strain 10 | Candida growth, Strain 11 | number of the 11 Candida strains that grew (listed as 0.00625% (w/v) potassium sorbate) | number of the 11 Candida strains that grew (listed as 0.0025% (w/v) sodium dehydroacetate) | number of the 11 Candida strains that grew | number of the 11 Candida strains that grew (listed as 0.01% (w/v) sodium dehydroacetate) | number of the 11 Candida strains that grew (listed as 0.0125% (w/v) Ethylparaben) | number of the 11 Candida strains that grew (listed as 0.05% (w/v) Ethylparaben) | number of the 11 Candida strains that grew (listed as 0.025% (w/v) potassium sorbate) | number of the 11 Candida strains that grew (listed as 0.25% (w/v) sodium propionate) | number of the 11 Candida strains that grew (listed as 0.0625% (w/v) sodium propionate)
1 | C/C=C/C=C/C(=O)[O-].[K+] [0.00625% potassium sorbate, potassium sorbate] | + | + | + | + | + | + | + | + | − | + | + | 10 |  |  |  |  |  |  |  | 
2 | CC(=O)c1c([O-])cc(C)oc1=O.[Na+] [0.0025% sodium dehydroacetate, sodium dehydroacetate] | + | + | + | + | − | + | + | + | + | + | + |  | 10 |  |  |  |  |  |  | 
3 | O=C([O-])c1ccccc1.[Na+] [0.025% sodium benzoate, sodium benzoate] | + | + | + | + | + | + | + | + | + | + | + |  |  | 11/11 |  |  |  |  |  | 
4 | C/C=C/C=C/C(=O)[O-].[K+] [0.0125% potassium sorbate, potassium sorbate] | + | − | + | + | + | + | + | + | − | + | + |  |  |  |  |  |  |  |  | 
5 | CC(=O)c1c([O-])cc(C)oc1=O.[Na+] [0.01% sodium dehydroacetate, sodium dehydroacetate] | + | − | + | + | − | + | + | + | − | + | − |  |  |  | 7 |  |  |  |  | 
6 | CCOC(=O)c1ccc(O)cc1 [0.025% Ethylparaben, Ethylparaben] | + | + | + | + | + | + | + | + | + | + | + |  |  |  |  |  |  |  |  | 
7 | CCOC(=O)c1ccc(O)cc1 [0.0125% Ethylparaben, Ethylparaben] | + | + | + | + | + | + | + | + | + | + | + |  |  |  |  | 11 |  |  |  | 
8 | CCOC(=O)c1ccc(O)cc1 [0.05% Ethylparaben, Ethylparaben] | − | + | + | + | − | + | + | + | − | + | + |  |  |  |  |  | 8 |  |  | 
9 | C/C=C/C=C/C(=O)[O-].[K+] [0.025% potassium sorbate, potassium sorbate] | + | − | + | + | + | + | + | + | − | + | + |  |  |  |  |  |  | 9 |  | 
10 | CCC(=O)[O-].[Na+] [0.25% sodium propionate, sodium propionate] | − | − | + | + | − | − | + | + | − | + | − |  |  |  |  |  |  |  | 5 | 
11 | CCC(=O)[O-].[Na+] [0.0625% sodium propionate, sodium propionate] | + | + | + | + | + | + | + | + | + | + | + |  |  |  |  |  |  |  |  | 11
